Measured values as given in article PMC9704104, “Towards safer anti-inflammatory therapy: synthesis of new thymol–pyrazole hybrids as dual COX-2/5-LOX inhibitors” (Journal of Enzyme Inhibition and Medicinal Chemistry, 2022).

Columns and labels:
COX-1 = molecular target: T1, COX-1 (Ovis aries, UniProt P05979); assay: In vitro COX-1 inhibitory assay (Cayman colorimetric COX (ovine) inhibitor screening assay kit); format: biochemical; conditions: mean of three replicates ± SD
T1 construct: purchased Cayman chemicals 560131
T1 sequence (P05979 25-600): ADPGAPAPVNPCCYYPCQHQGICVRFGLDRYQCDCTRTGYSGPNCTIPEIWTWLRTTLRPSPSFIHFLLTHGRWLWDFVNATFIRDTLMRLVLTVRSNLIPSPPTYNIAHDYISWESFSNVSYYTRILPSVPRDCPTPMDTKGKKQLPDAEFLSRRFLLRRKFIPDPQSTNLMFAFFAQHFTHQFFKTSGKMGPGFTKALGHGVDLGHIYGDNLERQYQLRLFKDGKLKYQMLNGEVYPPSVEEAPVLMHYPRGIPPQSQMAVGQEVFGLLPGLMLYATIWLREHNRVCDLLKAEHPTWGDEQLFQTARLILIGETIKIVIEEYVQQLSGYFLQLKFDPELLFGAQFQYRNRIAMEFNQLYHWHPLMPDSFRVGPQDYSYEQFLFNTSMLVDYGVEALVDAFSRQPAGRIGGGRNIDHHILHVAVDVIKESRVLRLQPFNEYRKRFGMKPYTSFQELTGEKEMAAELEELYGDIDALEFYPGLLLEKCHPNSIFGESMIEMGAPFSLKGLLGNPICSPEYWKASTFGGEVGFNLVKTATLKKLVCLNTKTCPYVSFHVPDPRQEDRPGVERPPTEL
Description: (§1) (Page: S20, Supplementary file).
(§2) Anti-inflammatory activity
(§3) In vitro COX-1 and COX-2 inhibitory assay […]
(§4) supplied by Cayman chemicals, Ann Arbor, MI, USA according to reported method 1. The colorimetric COX inhibitor screening assay utilizes the peroxidase component of cyclooxygenase. The peroxidase activity was assayed calorimetrically by monitoring the appearance of oxidized N,N,N',N'-tetramethyl-1,4-phenylenediamine (TMPD) at 590nm. The appearance of reagent was carried out following the instructions […]
(§5) The half- maximal inhibitor concentrations (IC50µM) were determined and the selectivity index (SI) values were calculated as IC50 (COX-1)/IC50 (COX-2).
(§6) 1) Background wells- 160 µL of assay buffer and 10 µL of heme were added to background wells.
(§7) 2) The 100% Initial activity wells- 150 µL of assay buffer, 10 µL of heme and 10 µL of enzyme (COX-1 or COX-2) were added.
3) Inhibitor well- 150 µL of assay buffer, 10 µL of heme and 10 µL of enzyme were added.
4) 10 µL of inhibitor (3 concentrations) in DMSO was added to the inhibitor wells to yield a final […]
5) 10 µL of solvent (DMSO) was added to the 100% Initial activity wells and background wells.
7) 20 µL of colorimetric substrate solution (TMPD) was added to all wells.
8) 20 µL of arachidonic acid was added to all wells to yield a final concentration of 100 µM.
10) The absorbance was measured at 590 nm using a plate reader.
The calculations were carried out in the following manner:
(§8) 1) The average absorbance of all samples was determined.
(§9) 2) The absorbance of background wells was subtracted from absorbance of the 100% Initial activity […]
3) Percent inhibition = (100% Initial activity – Inhibitor wells/ 100% Initial activity)∗ 100 […]
Place the 96-well plate on a shaker for at least five minutes. […]

COX-2 = molecular target: T2, COX-2 (Ovis aries, UniProt P79208); assay: In vitro COX-2 inhibitory assay (Cayman colorimetric COX (ovine) inhibitor screening assay kit); format: biochemical
T2 sequence (P79208 17-603): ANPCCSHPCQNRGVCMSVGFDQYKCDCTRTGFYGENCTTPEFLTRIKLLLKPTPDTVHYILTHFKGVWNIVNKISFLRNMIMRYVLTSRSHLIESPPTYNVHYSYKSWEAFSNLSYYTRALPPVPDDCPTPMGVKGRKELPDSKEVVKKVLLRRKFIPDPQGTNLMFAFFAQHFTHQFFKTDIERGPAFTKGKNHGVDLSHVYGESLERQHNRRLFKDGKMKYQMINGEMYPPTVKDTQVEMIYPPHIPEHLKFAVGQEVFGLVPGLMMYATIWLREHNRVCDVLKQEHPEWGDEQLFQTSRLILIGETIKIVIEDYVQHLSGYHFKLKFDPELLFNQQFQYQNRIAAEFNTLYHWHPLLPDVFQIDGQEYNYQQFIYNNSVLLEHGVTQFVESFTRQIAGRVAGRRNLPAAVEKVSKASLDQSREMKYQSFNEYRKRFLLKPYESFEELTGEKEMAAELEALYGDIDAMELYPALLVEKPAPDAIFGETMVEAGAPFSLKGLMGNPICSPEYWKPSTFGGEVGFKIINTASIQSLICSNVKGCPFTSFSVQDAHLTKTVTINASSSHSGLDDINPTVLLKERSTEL
Description: as §1, §2, §3, §4, §5, §6, §7
3) Inhibitor well- 150 µL of assay buffer, 10 µL of heme and 10 µL of enzyme were added. […]
10) The absorbance was measured at 590 nm using a plate reader. […]
as §8, §9
7) Remove the cover and read the absorbance at 490-500 nm using a plate reader. […]
2) The absorbance of blank wells was subtracted from absorbance of the 100% Initial activity and the […]

Structure (SMILES): Cc1ccc(C(C)C)c(O)c1C=NNC(=O)c1cc(-c2ccccc2)n(-c2ccccc2)n1 [Compound 8d, N'-(2-Hydroxy-3-isopropyl-6-methylbenzylidene)-1,5-diphenyl-1H-pyrazole-3-carbo-hydrazide]
- IC50 (COX-1): 10.19 ± 0.036 µM
- Selectivity index (COX-2; SI = COX-1 IC50/COX-2 IC50): 92.6
- IC50 (COX-2; mean of three replicates ± SD): 0.11 ± 0.007 µM
